From ChEMBL document CHEMBL1201862, “PubChem BioAssay data set” (2004)
Activity calls are given as the source filed them.

Legend:
[1] = cytotoxicity in HEK-293T cells, dose response, cytotoxicity control for TCR NF-kB inhibitor project, luminescence, T-cell screen hits (AID 489026); assay type: functional, cell-based;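 also: cells exposed to compound about 14 hours before the viability readout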
H9c2 = experiment: cells; assay type: functional, cell-based; details: Rattus norvegicus, H9c2, Myocardium;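 also: confirmatory concentration-response retest of ultra-high-throughput screening hits for modulation of myocardial damage; cell death induced by hydrogen peroxide oxidative stress; compound pretreatment for 60 min then peroxide exposure for 2 h; potency is for protecting the cells against peroxide damage rather than for killing them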
[2] = target: T1, Runt-related transcription factor 1/Core-binding factor subunit beta (Homo sapiens, UniProt Q01196+Q13951); experiment: inhibitors of RUNX1 Runt–CBFb-SMMHC binding, primary screen, biochemical, FRET, Cerulean-Runt, Venus-CBFb-SMMHC, uHTS (AID 1434); assay type: protein assay;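 also: partner is the CBFb-SMMHC leukemia fusion protein rather than wild-type CBFb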
T1 sequence (Q01196 whole entry, the tested form may be a part): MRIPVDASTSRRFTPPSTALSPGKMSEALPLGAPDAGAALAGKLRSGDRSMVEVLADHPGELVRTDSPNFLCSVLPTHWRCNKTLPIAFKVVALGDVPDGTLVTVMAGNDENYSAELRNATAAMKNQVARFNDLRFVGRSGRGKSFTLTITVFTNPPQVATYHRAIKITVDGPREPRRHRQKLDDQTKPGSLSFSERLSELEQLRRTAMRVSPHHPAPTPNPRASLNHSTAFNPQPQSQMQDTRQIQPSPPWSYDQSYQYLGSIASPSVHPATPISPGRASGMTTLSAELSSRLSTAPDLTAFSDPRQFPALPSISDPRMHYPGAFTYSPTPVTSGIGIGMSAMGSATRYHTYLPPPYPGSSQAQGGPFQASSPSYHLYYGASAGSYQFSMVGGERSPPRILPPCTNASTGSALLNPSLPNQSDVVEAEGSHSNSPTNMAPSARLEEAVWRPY
T1 sequence (Q13951 whole entry, the tested form may be a part): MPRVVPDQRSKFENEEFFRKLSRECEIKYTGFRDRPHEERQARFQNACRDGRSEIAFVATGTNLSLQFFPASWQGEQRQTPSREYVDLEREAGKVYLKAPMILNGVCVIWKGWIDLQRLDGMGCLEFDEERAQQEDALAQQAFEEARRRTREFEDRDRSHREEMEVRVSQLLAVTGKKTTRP

[3] = target: T1, Runt-related transcription factor 1/Core-binding factor subunit beta; experiment: inhibitors of RUNX1 Runt–CBFb-SMMHC binding, biochemical, TR-FRET (AID 1438); assay type: protein assay
[4] = target: T2, Voltage-gated N-type calcium channel alpha-1B subunit/Amyloid beta A4 precursor protein-binding family A member 1 (Homo sapiens, UniProt Q00975+Q02410); assay type: protein assay
T2 sequence (Q00975 whole entry): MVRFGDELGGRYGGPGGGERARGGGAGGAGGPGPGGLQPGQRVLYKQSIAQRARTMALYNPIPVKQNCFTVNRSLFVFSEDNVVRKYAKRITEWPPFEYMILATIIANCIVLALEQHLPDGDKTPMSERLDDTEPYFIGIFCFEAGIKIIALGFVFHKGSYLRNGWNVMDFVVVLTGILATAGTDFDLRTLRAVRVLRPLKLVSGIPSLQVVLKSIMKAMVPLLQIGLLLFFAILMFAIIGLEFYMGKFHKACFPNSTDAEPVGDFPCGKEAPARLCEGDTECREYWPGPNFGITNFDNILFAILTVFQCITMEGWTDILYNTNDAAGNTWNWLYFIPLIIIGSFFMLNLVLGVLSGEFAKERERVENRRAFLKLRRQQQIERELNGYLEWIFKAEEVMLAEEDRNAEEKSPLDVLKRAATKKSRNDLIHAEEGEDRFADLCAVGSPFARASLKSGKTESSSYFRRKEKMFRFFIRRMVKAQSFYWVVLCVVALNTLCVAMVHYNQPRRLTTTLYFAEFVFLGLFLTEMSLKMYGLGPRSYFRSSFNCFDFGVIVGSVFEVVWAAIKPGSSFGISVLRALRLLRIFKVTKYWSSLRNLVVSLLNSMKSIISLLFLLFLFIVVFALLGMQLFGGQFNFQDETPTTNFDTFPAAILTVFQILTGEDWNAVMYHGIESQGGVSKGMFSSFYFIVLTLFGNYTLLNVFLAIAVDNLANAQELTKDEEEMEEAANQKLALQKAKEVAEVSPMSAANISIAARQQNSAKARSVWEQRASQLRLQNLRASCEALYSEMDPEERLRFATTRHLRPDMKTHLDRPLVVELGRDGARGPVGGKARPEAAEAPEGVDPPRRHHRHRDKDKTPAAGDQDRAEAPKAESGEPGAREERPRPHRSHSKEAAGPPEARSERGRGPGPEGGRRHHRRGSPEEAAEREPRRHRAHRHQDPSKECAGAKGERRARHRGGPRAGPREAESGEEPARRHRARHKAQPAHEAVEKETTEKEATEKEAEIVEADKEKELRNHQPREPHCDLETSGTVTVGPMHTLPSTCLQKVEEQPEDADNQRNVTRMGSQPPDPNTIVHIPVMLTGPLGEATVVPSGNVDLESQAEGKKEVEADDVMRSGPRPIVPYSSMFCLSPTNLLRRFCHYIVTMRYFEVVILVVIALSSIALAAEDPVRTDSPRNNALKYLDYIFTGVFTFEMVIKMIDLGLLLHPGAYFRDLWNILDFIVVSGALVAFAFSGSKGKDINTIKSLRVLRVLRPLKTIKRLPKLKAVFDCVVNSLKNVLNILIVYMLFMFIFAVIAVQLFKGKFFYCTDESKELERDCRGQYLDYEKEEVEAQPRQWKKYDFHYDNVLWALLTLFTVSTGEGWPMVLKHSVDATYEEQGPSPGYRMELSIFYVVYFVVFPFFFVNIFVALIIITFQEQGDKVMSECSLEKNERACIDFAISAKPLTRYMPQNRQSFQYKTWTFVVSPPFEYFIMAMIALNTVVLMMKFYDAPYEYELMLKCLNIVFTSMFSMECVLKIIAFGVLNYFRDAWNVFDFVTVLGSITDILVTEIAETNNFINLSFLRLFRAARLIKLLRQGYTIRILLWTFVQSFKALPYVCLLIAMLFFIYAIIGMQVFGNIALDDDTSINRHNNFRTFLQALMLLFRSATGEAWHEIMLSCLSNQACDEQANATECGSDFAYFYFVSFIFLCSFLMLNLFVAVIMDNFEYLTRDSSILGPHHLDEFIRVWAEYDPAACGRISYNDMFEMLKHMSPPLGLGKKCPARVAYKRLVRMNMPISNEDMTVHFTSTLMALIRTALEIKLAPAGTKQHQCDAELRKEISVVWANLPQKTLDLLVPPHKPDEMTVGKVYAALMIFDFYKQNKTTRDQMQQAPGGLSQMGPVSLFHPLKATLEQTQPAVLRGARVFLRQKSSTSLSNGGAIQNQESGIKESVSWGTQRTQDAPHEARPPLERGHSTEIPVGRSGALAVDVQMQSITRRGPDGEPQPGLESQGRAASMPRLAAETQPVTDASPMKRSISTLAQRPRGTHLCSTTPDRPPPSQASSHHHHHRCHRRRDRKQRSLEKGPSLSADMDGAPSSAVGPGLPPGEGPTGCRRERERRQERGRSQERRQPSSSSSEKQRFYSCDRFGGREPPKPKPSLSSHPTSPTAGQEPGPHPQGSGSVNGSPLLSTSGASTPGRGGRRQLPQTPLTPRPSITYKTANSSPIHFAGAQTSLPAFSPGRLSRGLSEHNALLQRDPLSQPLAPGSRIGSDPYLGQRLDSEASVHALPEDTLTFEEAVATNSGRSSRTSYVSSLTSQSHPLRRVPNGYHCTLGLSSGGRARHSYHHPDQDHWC
T2 sequence (Q02410 whole entry): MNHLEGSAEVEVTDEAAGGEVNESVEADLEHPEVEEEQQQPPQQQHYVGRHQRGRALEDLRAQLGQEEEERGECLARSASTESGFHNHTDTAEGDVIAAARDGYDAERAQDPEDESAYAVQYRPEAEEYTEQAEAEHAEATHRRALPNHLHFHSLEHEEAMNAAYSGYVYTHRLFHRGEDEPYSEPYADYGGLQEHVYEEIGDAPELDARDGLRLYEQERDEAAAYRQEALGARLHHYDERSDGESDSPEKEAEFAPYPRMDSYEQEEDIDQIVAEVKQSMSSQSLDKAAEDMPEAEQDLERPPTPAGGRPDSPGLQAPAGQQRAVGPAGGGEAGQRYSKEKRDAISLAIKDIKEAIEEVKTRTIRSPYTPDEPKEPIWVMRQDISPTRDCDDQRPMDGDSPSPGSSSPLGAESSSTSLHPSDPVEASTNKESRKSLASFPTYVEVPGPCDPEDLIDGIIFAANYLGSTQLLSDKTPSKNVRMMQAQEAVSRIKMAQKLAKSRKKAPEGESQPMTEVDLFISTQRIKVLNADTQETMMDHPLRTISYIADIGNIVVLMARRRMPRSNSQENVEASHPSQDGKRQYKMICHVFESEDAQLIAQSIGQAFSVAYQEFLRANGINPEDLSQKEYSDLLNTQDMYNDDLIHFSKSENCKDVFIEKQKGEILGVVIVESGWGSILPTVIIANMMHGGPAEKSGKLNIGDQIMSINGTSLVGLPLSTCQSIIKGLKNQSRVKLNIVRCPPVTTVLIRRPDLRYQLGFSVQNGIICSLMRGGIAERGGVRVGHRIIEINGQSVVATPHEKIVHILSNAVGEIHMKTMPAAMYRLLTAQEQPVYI

[5] = target: Induced myeloid leukemia cell differentiation protein Mcl-1 (Homo sapiens, UniProt Q07820); assay type: functional
[6] = target: T2, Voltage-gated N-type calcium channel alpha-1B subunit/Amyloid beta A4 precursor protein-binding family A member 1; assay type: protein assay; remark: listed apart in the source
Large T antigen = Large T antigen (Simian virus 40, UniProt P03070); assay type: functional, Betapolyomavirus macacae;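 also: Confirmatory-stage PubChem screen for compounds that inhibit SV40 T antigen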
[7] = target: T3, Tyrosine-protein phosphatase non-receptor type 7 (Homo sapiens, UniProt P35236); experiment: SAR analysis of chemical inhibitors of HePTP using a Fluorescent assay - Set 2. [Related pubchem assays (depositor defined):AID1059, AID1077, AID1661, AID2085, AID521]; assay type: functional
T3 sequence (P35236 whole entry): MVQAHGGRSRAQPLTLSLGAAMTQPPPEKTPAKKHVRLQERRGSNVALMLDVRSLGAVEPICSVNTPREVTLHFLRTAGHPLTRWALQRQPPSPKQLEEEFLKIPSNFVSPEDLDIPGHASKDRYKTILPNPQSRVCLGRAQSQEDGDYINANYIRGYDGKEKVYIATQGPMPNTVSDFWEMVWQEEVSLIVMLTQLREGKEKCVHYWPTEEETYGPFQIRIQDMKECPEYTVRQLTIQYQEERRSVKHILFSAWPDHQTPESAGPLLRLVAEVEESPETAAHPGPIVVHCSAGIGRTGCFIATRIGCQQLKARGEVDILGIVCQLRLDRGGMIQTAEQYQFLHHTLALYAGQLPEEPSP

[8] = target: Dual specificity protein phosphatase 3 (Homo sapiens, UniProt P51452); experiment: SAR VHR1 Fluorescent Assay for In Vitro dose response studies Set 2. [Related pubchem assays (depositor defined):AID1654, AID1661, AID1878]; assay type: functional
[9] = cytotoxicity toward NIH3T3 fibroblasts, dose response, counter-screen, cell-based, ATP luminescence, mouse fibroblasts (AID 2010); assay type: functional;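 also: cells exposed to compound for about 90 hours before reading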
[10] = target: Microphthalmia-associated transcription factor (Homo sapiens, UniProt O75030); experiment: TRPM1 promoter luciferase signal decrease, dose response, MITF inhibitor project, cell-based, SK-MEL-5, cherry-picked, set 3 (AID 493073); assay type: functional
[11] = target: G-protein coupled receptor 55 (Homo sapiens, UniProt Q9Y2T6); experiment: GPR55 agonists via beta-arrestin recruitment, primary screen, imaging, U2OS cells, beta-arrestin-GFP redistribution (AID 1961); assay type: functional
[12] = inhibitors of intracellular T. cruzi replication, confirmation, NIH3T3 host cells, beta-gal luminescence (AID 2044); assay type: functional, cell-based;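 also: intracellular parasites grown in NIH/3T3 mouse fibroblasts as host cells; luminescent beta-galactosidase reporter signal from transgenic T. cruzi replicating inside host cells; inhibitors lower the luminescence signal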
[13] = target: T4, Heat shock factor protein 1 (Mus musculus, UniProt P38532); experiment: inhibition of MG132-induced HSE-luciferase signal, confirmation, cell-based, NIH3T3, luminescence, dose retest (AID 2382); assay type: functional;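 also: NIH3T3 fibroblasts with HSF1-driven luciferase reporter stressed by proteasome inhibitor MG132; luminescence from HSF1-driven luciferase expression after 8 hours of MG132 stress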
T4 sequence (P38532 whole entry): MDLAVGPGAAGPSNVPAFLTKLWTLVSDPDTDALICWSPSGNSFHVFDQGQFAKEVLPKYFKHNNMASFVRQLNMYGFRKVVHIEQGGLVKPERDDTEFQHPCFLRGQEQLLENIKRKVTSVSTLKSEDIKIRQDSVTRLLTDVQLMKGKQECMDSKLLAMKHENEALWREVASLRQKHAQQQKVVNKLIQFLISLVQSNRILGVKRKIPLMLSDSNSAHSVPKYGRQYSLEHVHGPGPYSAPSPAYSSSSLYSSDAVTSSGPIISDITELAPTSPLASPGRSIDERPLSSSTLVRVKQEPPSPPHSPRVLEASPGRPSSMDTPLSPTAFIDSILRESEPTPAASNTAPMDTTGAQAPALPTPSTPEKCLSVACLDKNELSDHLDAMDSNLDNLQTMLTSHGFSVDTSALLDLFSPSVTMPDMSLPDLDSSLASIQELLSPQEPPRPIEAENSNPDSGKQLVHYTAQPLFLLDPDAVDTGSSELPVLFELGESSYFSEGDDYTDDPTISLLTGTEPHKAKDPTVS

Coagulation factor XII = Coagulation factor XII (Homo sapiens, UniProt P00748); assay type: functional;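 also: activated factor XIIa alpha cleaving a fluorogenic AMC peptide substrate; inhibitor potency from loss of enzyme activity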
Sequence of Coagulation factor XII (P00748 20-372 limits assumed): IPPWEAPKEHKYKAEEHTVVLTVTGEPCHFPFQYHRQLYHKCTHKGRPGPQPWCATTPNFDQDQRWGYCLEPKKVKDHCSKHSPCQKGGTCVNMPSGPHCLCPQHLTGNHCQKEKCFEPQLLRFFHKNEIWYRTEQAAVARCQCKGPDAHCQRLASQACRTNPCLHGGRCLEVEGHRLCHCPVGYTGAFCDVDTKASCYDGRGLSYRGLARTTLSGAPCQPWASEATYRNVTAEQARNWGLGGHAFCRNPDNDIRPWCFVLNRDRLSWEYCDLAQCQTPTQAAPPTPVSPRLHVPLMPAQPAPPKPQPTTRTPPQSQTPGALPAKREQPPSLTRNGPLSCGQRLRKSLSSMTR
Sequence of Coagulation factor XII (P00748 373-615 limits assumed): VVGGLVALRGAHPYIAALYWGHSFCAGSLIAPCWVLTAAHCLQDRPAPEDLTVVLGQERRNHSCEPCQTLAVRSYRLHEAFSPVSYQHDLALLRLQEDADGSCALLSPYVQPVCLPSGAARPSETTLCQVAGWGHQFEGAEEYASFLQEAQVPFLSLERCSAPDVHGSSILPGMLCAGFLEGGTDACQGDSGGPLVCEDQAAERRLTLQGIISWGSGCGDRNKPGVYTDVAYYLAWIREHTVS

[14] = target: T5, Polyadenylate-binding protein 1 (Homo sapiens, UniProt P11940); experiment: PABP1 MLLE–PAM2 interaction inhibitors, dose response, miRNA deadenylation inhibitor project, biochemical, fluorescence polarization, Cy5-PAM2 peptide, secondary (AID 602260); assay type: functional; details: read-out: IC50_Mean
T5 sequence (P11940 whole entry): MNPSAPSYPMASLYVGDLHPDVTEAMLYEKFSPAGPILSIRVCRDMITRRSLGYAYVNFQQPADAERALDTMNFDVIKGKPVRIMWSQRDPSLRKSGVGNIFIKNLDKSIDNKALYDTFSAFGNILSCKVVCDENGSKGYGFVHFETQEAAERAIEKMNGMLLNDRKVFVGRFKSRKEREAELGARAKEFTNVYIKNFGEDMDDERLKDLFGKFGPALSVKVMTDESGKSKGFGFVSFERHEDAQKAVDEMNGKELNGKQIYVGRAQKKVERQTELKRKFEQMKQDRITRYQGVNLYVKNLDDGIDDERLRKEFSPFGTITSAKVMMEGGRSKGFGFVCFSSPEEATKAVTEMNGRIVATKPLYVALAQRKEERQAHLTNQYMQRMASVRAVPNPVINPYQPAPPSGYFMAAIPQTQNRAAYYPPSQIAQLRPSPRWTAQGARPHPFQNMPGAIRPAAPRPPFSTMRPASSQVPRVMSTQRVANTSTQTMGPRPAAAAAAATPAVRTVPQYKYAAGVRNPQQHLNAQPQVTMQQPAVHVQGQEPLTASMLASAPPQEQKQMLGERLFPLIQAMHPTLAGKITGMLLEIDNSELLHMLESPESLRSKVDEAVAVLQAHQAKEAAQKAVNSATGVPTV

[15] = target: E3 ubiquitin-protein ligase Mdm2 (Homo sapiens, UniProt Q00987); experiment: enhancers of MDM2-luciferase reporter signal, concentration-effect titration, project on inhibitors of MDM2 ubiquitin ligase, cellular assay, luminescent readout, 384-well plate format (AID 1394); assay type: functional;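 also: MDM2 E3 inhibitors raise luminescence so EC50 is for signal enhancement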
[16] = target: T5, Polyadenylate-binding protein 1; experiment: PABP1 MLLE–PAM2 binding inhibitor potency, dose response, biochemical, fluorescence polarization, FITC-PAM2 peptide (AID 602259); assay type: functional; details: read-out: IC50_Mean
[17] = target: T4, Heat shock factor protein 1; experiment: HSF1 potentiators in luciferase reporter cells, confirmation, cell-based, NIH3T3, luminescence, dose retest (AID 435004); assay type: functional;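 also: stress induced by proteasome inhibitor MG132 added 30 min after compound; luciferase reporter driven by HSF1 response element in NIH3T3 cells; actives raise luminescence as potentiators of the MG132 stress response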
[18] = target: Eukaryotic translation initiation factor 4E (Mus musculus, UniProt P63073); experiment: eIF4E–eIF4G protein interaction inhibitors, dose response, biochemical, TR-FRET (AID 855); assay type: functional;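 also: potency for disrupting eIF4E binding to eIF4GI seen as loss of FRET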
[19] = target: DNA dC->dU-editing enzyme APOBEC-3G (Homo sapiens, UniProt Q9HC16); experiment: Dose Response confirmation of small molecule APOBEC3G DNA Deaminase Inhibitors via a fluorescence-based single-stranded DNA deaminase assay. [Related pubchem assays (depositor defined):AID493012, AID493028]; assay type: functional

Structure (SMILES): Nc1nc(-c2ccccc2)cc(N2CCCCC2)n1
- IC50 [1]: > 80 µM (inactive)

Structure (SMILES): CC(C)c1cc(N2CCN(C(=O)c3ccco3)CC2)n2c(nc3ccccc32)c1C#N
- IC50 (H9c2): 15.5 µM (active)
- IC50 [2]: > 100 µM (inactive)
- IC50 [3]: > 100 µM (inactive)

Structure (SMILES): COc1ccc(CC(=O)n2[nH]c(=O)ccc2=O)cc1OC
- IC50 [4]: 46.1 µM (active)
- IC50 [5]: 18.2 µM (active)
- IC50 [6]: 1.53 µM (active)
- IC50 (Large T antigen): > 100 µM (active)

Structure (SMILES): NS(=O)(=O)c1ccc(NC(=S)N2CCN(c3ccc(Cl)c(Cl)c3)CC2)cc1
- IC50 [7]: > 100 µM (inactive)
- IC50 [8]: > 100 µM (inactive)

Structure (SMILES): COc1ccc(C(=O)/C=C/C(=O)N(CC(=O)NC2CCCCC2)Cc2ccc(F)cc2)c(O)c1
- EC50 [9]: > 60 µM (not active)
- AC50 [10]: 5.45 µM (active)
- EC50 [11]: > 32 µM (inactive)
- EC50 [12]: 1.61 µM (active)
- EC50 [13]: 5.29 µM (active)

Structure (SMILES): COc1ccc(OC)c(/C=N/Nc2cc(C)nc(N3CCOCC3)n2)c1
- IC50 (Coagulation factor XII): > 50 µM (inactive)

Structure (SMILES): Cc1ccc(-n2c(N)c(C(=O)N3CCCCC3)sc2=S)cc1
- IC50 [7]: > 100 µM (inactive)
- IC50 [8]: 76.5 µM (active)

Structure (SMILES): Cc1cc(C)nc(S/C=C/C(=O)c2ccccc2F)n1
- IC50 [14]: > 66 µM (inactive)
- EC50 [15]: 1 µM (active)
- AC50 [10]: 5.37 µM (active)
- IC50 [16]: > 66 µM (inactive)
- EC50 [17]: 14.7 µM (active)

Structure (SMILES): CC1(C)CC(=O)C=C(NNC(=O)c2ccccc2O)C1
- IC50 (Coagulation factor XII): > 50 µM (inactive)

Structure (SMILES): COCc1c(N)c(C)nc(Cl)c1C#N
- IC50 [4]: 13.9 µM (active)
- IC50 [6]: > 50 µM (inactive)
- IC50 [18]: 50 µM (inactive)
- IC50 [19]: 13.3 µM (active)
